1 compound from publication PMC5218480 (PLoS ONE, 2017) can be followed below.

For the experiment, the system named is MV-4-11 cells. Kind of experiment: Gene expression microarray analysis (Affymetrix PrimeView) and GSEA. It counts as cell-based, human. The arrangement: RFU PODN (11730768_x_at) / Fold change /veh PODN (11730768_x_at) / RFU LINC00158 (11744669_a_at) / Fold change /veh LINC00158 (11744669_a_at) / RFU DUSP10 (11751237_a_at) / Fold change /veh DUSP10 (11751237_a_at) / RFU ID3 (11757404_x_at) / Fold change /veh ID3 (11757404_x_at) / RFU PLEKHG5 (11737974_s_at) / Fold change /veh PLEKHG5 (11737974_s_at) / RFU LRRC4B (11730491_at) / Fold change /veh LRRC4B (11730491_at) / RFU GIMAP4 (11747438_a_at) / Fold change /veh GIMAP4 (11747438_a_at) / RFU KRT8 (11758183_x_at) / Fold change /veh KRT8 (11758183_x_at) / RFU CNN1 (11734310_a_at) / Fold change /veh CNN1 (11734310_a_at) / RFU VPS37D (11726825_at) / Fold change /veh VPS37D (11726825_at) / RFU C10orf10 (11716522_x_at) / Fold change /veh C10orf10 (11716522_x_at) / RFU KIR2DL2 /// KIR2DL4 /// KIR2DL5A /// KIR2DL5B /// KIR2DS1 /// KIR2DS2 /// KIR2DS3 /// KIR2DS4 /// KIR3DL3 /// KIR3DL3 /// KIR3DS1 (11738374_at) / Fold change /veh KIR2DL2 /// KIR2DL4 /// KIR2DL5A /// KIR2DL5B /// KIR2DS1 /// KIR2DS2 /// KIR2DS3 /// KIR2DS4 /// KIR3DL3 /// KIR3DL3 /// KIR3DS1 (11738374_at) / RFU C1QL1 (11718748_at) / Fold change /veh C1QL1 (11718748_at) / RFU TMPRSS4 (11747572_a_at) / Fold change /veh TMPRSS4 (11747572_a_at) / RFU HAMP (11756126_x_at) / Fold change /veh HAMP (11756126_x_at) / RFU RNFT2 (11725882_a_at) / Fold change /veh RNFT2 (11725882_a_at) / RFU NR4A2 (11747474_a_at) / Fold change /veh NR4A2 (11747474_a_at) / RFU ABCC12 (11746883_a_at) / Fold change /veh ABCC12 (11746883_a_at) / RFU TMEM136 (11760407_x_at) / Fold change /veh TMEM136 (11760407_x_at) / RFU CLDN22 /// WWC2 (11732394_at) / Fold change /veh CLDN22 /// WWC2 (11732394_at) / RFU HLA-DPB1 (11760878_x_at) / Fold change /veh HLA-DPB1 (11760878_x_at) / RFU SPINT1 (11716480_a_at) / Fold change /veh SPINT1 (11716480_a_at) / RFU GAP43 (11754022_s_at) / Fold change /veh GAP43 (11754022_s_at) / RFU A4GNT (11735810_at) / Fold change /veh A4GNT (11735810_at) / RFU PRB3 (11715151_x_at) / Fold change /veh PRB3 (11715151_x_at) / RFU TUBB4B (11761932_at) / Fold change /veh TUBB4B (11761932_at) / RFU CAPN14 (11732068_a_at) / Fold change /veh CAPN14 (11732068_a_at) / RFU TMCC2 (11721928_a_at) / Fold change /veh TMCC2 (11721928_a_at) / RFU IRGQ (11745062_a_at) / Fold change /veh IRGQ (11745062_a_at) / RFU FAM174B (11720279_a_at) / Fold change /veh FAM174B (11720279_a_at) / RFU TMPRSS4 (11748680_a_at) / Fold change /veh TMPRSS4 (11748680_a_at) / RFU FAM212B (11763350_a_at) / Fold change /veh FAM212B (11763350_a_at) / RFU PLEKHG5 (11743358_a_at) / Fold change /veh PLEKHG5 (11743358_a_at) / RFU ZSCAN30 (11745921_a_at) / Fold change /veh ZSCAN30 (11745921_a_at) / RFU CMKLR1 (11741424_a_at) / Fold change /veh CMKLR1 (11741424_a_at) / RFU LOC101060620 /// MAPK8IP1 (11723275_at) / Fold change /veh LOC101060620 /// MAPK8IP1 (11723275_at) / RFU SPTSSB (11747773_x_at) / Fold change /veh SPTSSB (11747773_x_at) / RFU PRSS12 (11739890_at) / Fold change /veh PRSS12 (11739890_at) / RFU BIN1 (11741810_x_at) / Fold change /veh BIN1 (11741810_x_at) / RFU WNT11 (11732464_a_at) / Fold change /veh WNT11 (11732464_a_at) / RFU C10orf10 (11716521_a_at) / Fold change /veh C10orf10 (11716521_a_at) / RFU C5orf56 (11738089_at) / Fold change /veh C5orf56 (11738089_at) / RFU CYB561 (11721691_x_at) / Fold change /veh CYB561 (11721691_x_at) / RFU ANKRD19P (11752326_a_at) / Fold change /veh ANKRD19P (11752326_a_at) / RFU OR2T12 /// OR2T33 /// OR2T8 (11738714_s_at) / Fold change /veh OR2T12 /// OR2T33 /// OR2T8 (11738714_s_at) / RFU VCAN (11748164_a_at) / Fold change /veh VCAN (11748164_a_at) / RFU JSRP1 (11732532_at) / Fold change /veh JSRP1 (11732532_at) / RFU KRTAP10-11 (11738290_x_at) / Fold change /veh KRTAP10-11 (11738290_x_at) / RFU MYO3A (11730013_a_at) / Fold change /veh MYO3A (11730013_a_at) / RFU EBF3 (11725865_a_at) / Fold change /veh EBF3 (11725865_a_at) / RFU CAMK2N1 (11719241_x_at) / Fold change /veh CAMK2N1 (11719241_x_at) / RFU C5orf56 (11738088_a_at) / Fold change /veh C5orf56 (11738088_a_at) / RFU OLFML3 (11715873_a_at) / Fold change /veh OLFML3 (11715873_a_at) / RFU LOC100653217 /// NTM (11731650_a_at) / Fold change /veh LOC100653217 /// NTM (11731650_a_at) / RFU MAPK11 (11762145_a_at) / Fold change /veh MAPK11 (11762145_a_at) / RFU FIZ1 (11724087_x_at) / Fold change /veh FIZ1 (11724087_x_at) / RFU OASL (11726364_x_at) / Fold change /veh OASL (11726364_x_at) / RFU SOX15 (11748057_x_at) / Fold change /veh SOX15 (11748057_x_at) / RFU CD79A (11719716_a_at) / Fold change /veh CD79A (11719716_a_at) / RFU HIST1H1D (11736915_at) / Fold change /veh HIST1H1D (11736915_at) / RFU CASKIN2 (11723855_a_at) / Fold change /veh CASKIN2 (11723855_a_at) / RFU LOC730098 (11760151_x_at) / Fold change /veh LOC730098 (11760151_x_at) / RFU OR4N2 (11742367_at) / Fold change /veh OR4N2 (11742367_at) / RFU PRRT2 (11749266_a_at) / Fold change /veh PRRT2 (11749266_a_at) / RFU SNX32 (11753110_a_at) / Fold change /veh SNX32 (11753110_a_at) / RFU CDHR5 (11726645_a_at) / Fold change /veh CDHR5 (11726645_a_at) / RFU RCAN1 (11760418_a_at) / Fold change /veh RCAN1 (11760418_a_at) / RFU FAM167A (11723789_a_at) / Fold change /veh FAM167A (11723789_a_at) / RFU FAM26E (11764081_at) / Fold change /veh FAM26E (11764081_at) / RFU ISYNA1 (11749810_s_at) / Fold change /veh ISYNA1 (11749810_s_at) / RFU ACY1 (11761880_at) / Fold change /veh ACY1 (11761880_at) / RFU 11764098_at / Fold change /veh 11764098_at / RFU SAMD14 (11745864_x_at) / Fold change /veh SAMD14 (11745864_x_at) / RFU NPB (11741838_a_at) / Fold change /veh NPB (11741838_a_at) / RFU TMPRSS6 (11731388_a_at) / Fold change /veh TMPRSS6 (11731388_a_at) / RFU KRTAP10-2 (11738614_at) / Fold change /veh KRTAP10-2 (11738614_at) / RFU ARHGAP8 /// PRR5-ARHGAP8 (11727945_x_at) / Fold change /veh ARHGAP8 /// PRR5-ARHGAP8 (11727945_x_at) / RFU KRTAP5-7 /// NADSYN1 (11734609_at) / Fold change /veh KRTAP5-7 /// NADSYN1 (11734609_at) / RFU RASL12 (11751679_a_at) / Fold change /veh RASL12 (11751679_a_at) / RFU CDKN2B (11736163_a_at) / Fold change /veh CDKN2B (11736163_a_at) / RFU PRF1 (11729649_at) / Fold change /veh PRF1 (11729649_at) / RFU, ZNF638 /// ZNF638-IT1 / Fold change vs veh, ZNF638 /// ZNF638-IT1 / RFU, PANK3 / Fold change vs veh, PANK3 / RFU, SH3YL1 / Fold change vs veh, SH3YL1 / RFU, ZEB2 / Fold change vs veh, ZEB2 / RFU, NRIP1 / Fold change vs veh, NRIP1 / RFU, PTTG1IP / Fold change vs veh, PTTG1IP / RFU, CAPN2 / Fold change vs veh, CAPN2 / RFU, MED14 / Fold change vs veh, MED14 / RFU, SNORA58 / Fold change vs veh, SNORA58 / RFU, C1orf63 / Fold change vs veh, C1orf63 / RFU, LRRFIP1 / Fold change vs veh, LRRFIP1 / RFU, NDUFAF7 / Fold change vs veh, NDUFAF7 / RFU, SLC12A2 / Fold change vs veh, SLC12A2 / RFU, IBTK / Fold change vs veh, IBTK / RFU, ESF1 / Fold change vs veh, ESF1 / Fold change vs veh, TMEM50B / RFU, TAOK1 / Fold change vs veh, TAOK1 / RFU, ACBD3 / Fold change vs veh, ACBD3 / RFU, TMA16 / Fold change vs veh, TMA16 / RFU, RWDD3 / Fold change vs veh, RWDD3 / RFU, BCAT1 / Fold change vs veh, BCAT1 / RFU, EDEM3 / Fold change vs veh, EDEM3 / RFU, TMEM33 / Fold change vs veh, TMEM33 / RFU, WDR75 / Fold change vs veh, WDR75 / RFU, AHCTF1 / Fold change vs veh, AHCTF1 / RFU, TFRC / Fold change vs veh, TFRC / RFU, ZDHHC17 / Fold change vs veh, ZDHHC17 / RFU, NOM1 / Fold change vs veh, NOM1 / RFU, ARL8B / Fold change vs veh, ARL8B / RFU, ZBTB11 / Fold change vs veh, ZBTB11 / RFU, TAMM41 / Fold change vs veh, TAMM41 / RFU, KIAA1704 /// LOC100996395 / Fold change vs veh, KIAA1704 /// LOC100996395 / RFU, ING1 / Fold change vs veh, ING1 / RFU, TRMT61B / Fold change vs veh, TRMT61B / RFU, FUBP3 / Fold change vs veh, FUBP3 / RFU, TP53 / Fold change vs veh, TP53 / RFU, TNKS2 / Fold change vs veh, TNKS2 / RFU, ZFP14 / Fold change vs veh, ZFP14 / RFU, ACTR2 / Fold change vs veh, ACTR2 / RFU, PPP3R1 / Fold change vs veh, PPP3R1 / RFU, PIK3R1 / Fold change vs veh, PIK3R1 / RFU, HNRNPA1 / Fold change vs veh, HNRNPA1 / RFU, RNF170 / Fold change vs veh, RNF170 / RFU, ZNF28 / Fold change vs veh, ZNF28 / RFU, RNGTT / Fold change vs veh, RNGTT / RFU, OGT / Fold change vs veh, OGT / RFU, BRD1 / Fold change vs veh, BRD1 / RFU, MARS / Fold change vs veh, MARS / RFU, ZNF655 / Fold change vs veh, ZNF655 / RFU, FAHD1 / Fold change vs veh, FAHD1 / RFU, BDP1 / Fold change vs veh, BDP1 / RFU, LRRCC1 / Fold change vs veh, LRRCC1 / RFU, ARID1A / Fold change vs veh, ARID1A / RFU, ZNF146 / Fold change vs veh, ZNF146 / RFU, ZNF330 / Fold change vs veh, ZNF330 / RFU, GPN3 / Fold change vs veh, GPN3 / RFU, C9orf123 / Fold change vs veh, C9orf123 / RFU, N4BP2L2 / Fold change vs veh, N4BP2L2 / RFU, ARFIP1 / Fold change vs veh, ARFIP1 / RFU, FAM179B / Fold change vs veh, FAM179B / RFU, BCL10 / Fold change vs veh, BCL10 / RFU, UHRF1BP1L / Fold change vs veh, UHRF1BP1L / RFU, BET1 / Fold change vs veh, BET1 / RFU, CNOT2 / Fold change vs veh, CNOT2 / RFU, ZNF268 / Fold change vs veh, ZNF268 / Fold change vs veh, ZNF507 / RFU, DGCR2 / Fold change vs veh, DGCR2 / RFU, WDSUB1 / Fold change vs veh, WDSUB1 / Fold change vs veh, HSP90B1 /// MIR3652 / RFU, ADSS / Fold change vs veh, ADSS / RFU, GK / Fold change vs veh, GK / RFU, ZNF148 / Fold change vs veh, ZNF148 / RFU, TAF9 / Fold change vs veh, TAF9 / RFU, SLC1A5 / Fold change vs veh, SLC1A5 / RFU, SLMO2 / Fold change vs veh, SLMO2 / RFU, ABCC4 / Fold change vs veh, ABCC4 / RFU, LOC101060439 /// RAP1B / Fold change vs veh, LOC101060439 /// RAP1B / RFU, RFX7 / Fold change vs veh, RFX7 / RFU, GTPBP10 / Fold change vs veh, GTPBP10 / RFU, CNEP1R1 / Fold change vs veh, CNEP1R1 / RFU, BIVM-ERCC5 /// ERCC5 / Fold change vs veh, BIVM-ERCC5 /// ERCC5 / RFU, ILF3 / Fold change vs veh, ILF3 / RFU 11762660_at / Fold change /veh 11762660_at / RFU VCAN (11757783_s_at) / Fold change /veh VCAN (11757783_s_at) / RFU DDX43 (11728927_at) / Fold change /veh DDX43 (11728927_at) / RFU KRT8 (11758188_x_at) / Fold change /veh KRT8 (11758188_x_at) / RFU NKD1 (11759106_at) / Fold change /veh NKD1 (11759106_at) / RFU SRD5A1 (11742802_a_at) / Fold change /veh SRD5A1 (11742802_a_at) / RFU TPSAB1 /// TPSB2 (11721975_s_at) / Fold change /veh TPSAB1 /// TPSB2 (11721975_s_at) / RFU GSTM3 (11746129_a_at) / Fold change /veh GSTM3 (11746129_a_at) / RFU IL23R (11737362_x_at) / Fold change /veh IL23R (11737362_x_at) / RFU TMEM51 (11727254_a_at) / Fold change /veh TMEM51 (11727254_a_at) / RFU PIWIL2 (11732686_x_at) / Fold change /veh PIWIL2 (11732686_x_at) / RFU ORM1 (11744905_x_at) / Fold change /veh ORM1 (11744905_x_at) / RFU CCDC152 (11743942_at) / Fold change /veh CCDC152 (11743942_at) / RFU ECM1 (11717891_a_at) / Fold change /veh ECM1 (11717891_a_at) / RFU IL23R (11748794_a_at) / Fold change /veh IL23R (11748794_a_at) / RFU TNFAIP8L3 (11732012_x_at) / Fold change /veh TNFAIP8L3 (11732012_x_at) / RFU MBOAT4 (11741988_at) / Fold change /veh MBOAT4 (11741988_at) / RFU 11764193_at / Fold change /veh 11764193_at / RFU TMEM53 (11763286_at) / Fold change /veh TMEM53 (11763286_at) / RFU MAGEB2 (11727129_at) / Fold change /veh MAGEB2 (11727129_at) / RFU TMEM200A (11744735_a_at) / Fold change /veh TMEM200A (11744735_a_at) / RFU CCDC152 (11751479_a_at) / Fold change /veh CCDC152 (11751479_a_at) / RFU FAM211A (11726209_a_at) / Fold change /veh FAM211A (11726209_a_at) / RFU RGS16 (11746705_a_at) / Fold change /veh RGS16 (11746705_a_at) / RFU VCAN (11755009_s_at) / Fold change /veh VCAN (11755009_s_at) / RFU RHOB (11743442_s_at) / Fold change /veh RHOB (11743442_s_at) / RFU RGS16 (11720943_a_at) / Fold change /veh RGS16 (11720943_a_at) / RFU RGS16 (11720944_at) / Fold change /veh RGS16 (11720944_at) / RFU, VPS4B / Fold change vs veh, VPS4B / RFU, CREB1 / Fold change vs veh, CREB1 / RFU, DNAJC13 / Fold change vs veh, DNAJC13 / RFU, GNAQ / Fold change vs veh, GNAQ / RFU, CDK5R1 / Fold change vs veh, CDK5R1 / RFU, ZRANB3 / Fold change vs veh, ZRANB3 / RFU, CUL4A / Fold change vs veh, CUL4A / RFU, CCNY / Fold change vs veh, CCNY / RFU, UFL1 / Fold change vs veh, UFL1 / RFU, COG3 / Fold change vs veh, COG3 / RFU, DIAPH2 / Fold change vs veh, DIAPH2 / RFU, SKA2 / Fold change vs veh, SKA2 / RFU, AFF3 / Fold change vs veh, AFF3 / RFU, LMF1 / Fold change vs veh, LMF1 / RFU, IPO11 / Fold change vs veh, IPO11 / RFU, DFFB / Fold change vs veh, DFFB / RFU, FOXP1 / Fold change vs veh, FOXP1 / RFU, CARD8 / Fold change vs veh, CARD8 / RFU, STRN3 / Fold change vs veh, STRN3 / RFU, ADK / Fold change vs veh, ADK / RFU, RASSF2 / Fold change vs veh, RASSF2 / RFU, WIPF1 / Fold change vs veh, WIPF1 / RFU, LARP1B / Fold change vs veh, LARP1B / RFU, RASA1 / Fold change vs veh, RASA1 / RFU, RB1 / Fold change vs veh, RB1 / RFU, PPFIA1 / Fold change vs veh, PPFIA1 / RFU, MAT2A / Fold change vs veh, MAT2A / RFU, CCT5 / Fold change vs veh, CCT5 / RFU, WDR92 / Fold change vs veh, WDR92 / RFU, CUX1 / Fold change vs veh, CUX1 / RFU, TTC7A / Fold change vs veh, TTC7A / RFU, TMEM135 / Fold change vs veh, TMEM135 / RFU, DEPTOR / Fold change vs veh, DEPTOR / RFU, CPM / Fold change vs veh, CPM / RFU, DNAJB6 / Fold change vs veh, DNAJB6 / RFU, CACNA2D3 / Fold change vs veh, CACNA2D3 / RFU, DTX4 / Fold change vs veh, DTX4 / RFU, TFCP2 / Fold change vs veh, TFCP2 / RFU, GMCL1 /// GMCL1P1 / Fold change vs veh, GMCL1 /// GMCL1P1 / RFU, AEBP2 / Fold change vs veh, AEBP2 / RFU, SNHG1 /// SNORD22 /// SNORD25 /// SNORD26 /// SNORD27 /// SNORD28 /// SNORD29 /// SNORD31 / Fold change vs veh, SNHG1 /// SNORD22 /// SNORD25 /// SNORD26 /// SNORD27 /// SNORD28 /// SNORD29 /// SNORD31 / Fold change (Aza/veh), C12orf56 (ProbeSet 11735607_a_at) / Fold change (ACY-1035/veh), C12orf56 (ProbeSet 11735607_a_at) / Fold change (Aza/veh), FGFR1OP (ProbeSet 11751329_s_at) / Fold change (ACY-1035/veh), FGFR1OP (ProbeSet 11751329_s_at) / Fold change (Aza/veh), VPS36 (ProbeSet 11739960_a_at) / Fold change (ACY-1035/veh), VPS36 (ProbeSet 11739960_a_at) / RFU SYPL1 (11715823_x_at) / Fold change /veh SYPL1 (11715823_x_at) / RFU IGFBP7 (11715501_s_at) / Fold change /veh IGFBP7 (11715501_s_at) / RFU REEP3 (11722064_at) / Fold change /veh REEP3 (11722064_at) / RFU IGLL1 (11728026_x_at) / Fold change /veh IGLL1 (11728026_x_at): dose or concentration left out as unconfirmed. Conditions: ProbeSet 11722302_a_at; LIST B.

As for `Nc1ncn([C@@H]2O[C@H](CO)[C@@H](O)[C@H]2O)c(=O)n1` [azacitidine], the “RFU, LRRFIP1” value is recorded as 130.71 RFU.
